Measurements taken from patent US10889611B2, “Sialyltransferase inhibitors and uses thereof” (Academia Sinica, priority 2015, dated 2021).
“And” between values parts separate entries of the source, which are not always exact repeats. Equal entries are not always repeated. Where two headings read alike, the source gives them in different places.

Legend:
[1] = target: T1, α2,3(O)-sialyltransferase ST3GALI (Rattus norvegicus, UniProt Q6H8N0); assay: Sialyltransferase inhibition assay, ST3GALI (reverse-phase HPLC); type: biochemical; settings: for inhibition at 500 µM: measured at 500 μM
T1 construct: purchased Calbiochem
T1 sequence (Q6H8N0 1-340): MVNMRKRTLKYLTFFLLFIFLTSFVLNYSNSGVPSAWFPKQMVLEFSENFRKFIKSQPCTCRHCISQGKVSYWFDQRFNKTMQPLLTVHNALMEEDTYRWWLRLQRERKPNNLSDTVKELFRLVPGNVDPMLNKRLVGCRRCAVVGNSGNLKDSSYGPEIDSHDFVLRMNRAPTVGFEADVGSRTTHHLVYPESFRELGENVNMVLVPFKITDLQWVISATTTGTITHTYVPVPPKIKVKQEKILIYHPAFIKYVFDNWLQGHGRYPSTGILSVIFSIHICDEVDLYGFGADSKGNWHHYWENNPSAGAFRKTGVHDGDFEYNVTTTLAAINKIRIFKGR
Protocol: (§1) The enzymes analyzed in the present study included rat ST3Gal(I), rat ST3Gal(III), and human ST6Gal(I). Rat ST3Gal(I) and rat ST3Gal(Ill), were purchased from Calbiochem®, while human ST6Gal(I) was purchased from RnDSystems.com.
(§2) Sialyltransferase inhibition assay […] was performed as follows: Sialyltransferase activity was determined by measuring the level of the end product of sialylated saccharides with reverse-phase HPLC. The assay mixtures contained the following components: 200 mM MES buffer; 100 mM NaCl; 0.5 mM EDTA; 0.01% Triton X-100; 1.4 mU ST3GALI; 2.5 mM T-antigen; 1 mM CMP-Neu5Ac and different concentration of Sialyltransferase inhibitors to a total volume of 50 μl. The assay mixture was incubated at 37° C. for 15 mins and then quenched by heating up to 101′C for 10 mins. The sialylated product was resolved by reversed-phase HPLC. Kinetic data were obtained by fitting the initial rate data to the nonlinear regression equation.
(§3) Effects of the present compounds on the activity of sialyltransferase, including α2,3(N)-sialyltransferase ST3GALIII, α2,6(N)-sialyltransferases ST6GALI, and α2,3(O)-sialyltransferase ST3GALI, were determined in accordance with procedures described in the “Materials and Methods” section, and results are summarized in Table 1.

[2] = target: T2, α2,3(N)-sialyltransferase ST3GALIII (Rattus norvegicus, UniProt Q02734); assay: Sialyltransferase activity assay, ST3GALIII; type: biochemical; settings: α2,3-N-link
T2 construct: purchased Calbiochem
T2 sequence (Q02734 1-374): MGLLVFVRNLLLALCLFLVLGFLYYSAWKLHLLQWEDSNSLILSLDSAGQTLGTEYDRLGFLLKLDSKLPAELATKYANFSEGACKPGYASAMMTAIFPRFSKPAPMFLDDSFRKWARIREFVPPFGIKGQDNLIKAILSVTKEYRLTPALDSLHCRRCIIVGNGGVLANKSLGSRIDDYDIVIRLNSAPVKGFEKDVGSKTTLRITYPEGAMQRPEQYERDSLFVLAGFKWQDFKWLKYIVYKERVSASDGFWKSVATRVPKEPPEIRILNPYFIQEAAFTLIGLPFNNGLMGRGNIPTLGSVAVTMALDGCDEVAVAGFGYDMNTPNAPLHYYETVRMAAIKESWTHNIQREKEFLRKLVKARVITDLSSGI

[3] = target: T3, α2,6(N)-sialyltransferases ST6GALI (Homo sapiens, UniProt P15907); assay: Sialyltransferase inhibition assay, ST6GALI (reverse-phase HPLC); type: biochemical; settings: for IC50: α2,6-N-link
T3 construct: purchased RnDSystems.com (R&D Systems)
T3 sequence (P15907 1-406): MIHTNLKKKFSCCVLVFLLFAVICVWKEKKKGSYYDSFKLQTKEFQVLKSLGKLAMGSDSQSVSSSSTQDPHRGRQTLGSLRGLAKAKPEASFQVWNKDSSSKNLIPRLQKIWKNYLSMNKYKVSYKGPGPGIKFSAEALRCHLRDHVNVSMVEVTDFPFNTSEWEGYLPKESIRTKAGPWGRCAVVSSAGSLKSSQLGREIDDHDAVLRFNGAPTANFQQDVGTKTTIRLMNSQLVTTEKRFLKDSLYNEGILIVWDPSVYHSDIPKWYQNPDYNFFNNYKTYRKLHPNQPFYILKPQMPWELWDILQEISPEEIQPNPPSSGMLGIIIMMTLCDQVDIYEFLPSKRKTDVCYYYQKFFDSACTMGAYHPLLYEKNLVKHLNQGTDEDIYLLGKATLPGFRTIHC
Protocol: as §1
as §2, with “mU ST6GALI; 25 μM Galβ1-4GlcNAc;” for “mU ST3GALI; 2.5 mM T-antigen;”, “to 101° C.” for “to 101′C”, “product is” for “product was”, “resolved with” for “resolved by”
as §3

[4] = target: T2, α2,3(N)-sialyltransferase ST3GALIII; assay: Sialyltransferase activity assay, ST3GALIII; type: biochemical; settings: comparative controls with measured ST3GALI IC50
Protocol: as §1, §2
as §2, with “mU ST6GALI; 25 μM Galβ1-4GlcNAc;” for “mU ST3GALI; 2.5 mM T-antigen;”, “to 101° C.” for “to 101′C”, “product is” for “product was”, “resolved with” for “resolved by”
as §3

[5] = read-out: ST3GALI inhibition percentage

Row | SMILES | IC50 ([1]; α2,3-O-link) [µM] | IC50 ([2]; read-out: IC50 (μM) ST3GALIII) [µM] | selectivity ratio ST3GALI/ST6GALI [3] | IC50 ([3]; read-out: IC50 (μM) ST6GALI) [µM] | selectivity ratio ST3GALI/ST3GALIII [4] | inhibition at 500 µM [1, 5] [%] | IC50 ([3]; IC50 (μM) ST6GALI) | melting point [°C] | inhibition at 1000 µM ([1]; measured at 1 mM, read-out: ST3GALI inhibition percentage) [%] | IC50 ([2]; IC50 (μM) ST3GALIII)
1 | C[C@H](CCC(=O)O)[C@H]1CC[C@H]2[C@@H]3CC[C@@H]4C[C@H](OC(=O)[C@@H](N)CC(=O)O)CC[C@]4(C)[C@H]3CC[C@]12C [Lith-O-Asp, reference compound] | 39 ± 1.26 | 12 | 3 | 15.78 ± 0.13 | 3 |  |  |  |  | 
2 | COc1ccc2c(CC(=O)N[C@@H](CC(=O)O)C(=O)O[C@@H]3CC[C@@]4(C)[C@H](CC[C@@H]5[C@@H]4CC[C@]4(C)C([C@H](C)CCC(=O)OCCOCCOCCOCCN=[N+]=[N-])CC[C@@H]54)C3)cc(=O)oc2c1 (stereo partly drawn) [Compound 14, (3S)-4-(((3R,5R,8R,9S,10S,13R,14S)-17-((R)-1-azido-13-oxo-3,6,9,12-tetraoxaheptadecan-16-yl)-10,13-dimethylhexadecahydro-1H-cyclopenta[a]phenanthren-3-yl)oxy)-3-(2-(7-methoxy-2-oxo-2H-chromen-4-yl)acetamido)-4-oxobutanoic acid] |  |  | >101 |  |  | 0 | 4.95 ± 0.37 µM | 126 to 127 |  | 
3 | COc1ccc2c(CC(=O)N[C@@H](CC(=O)O)C(=O)O[C@@H]3CC[C@@]4(C)[C@H](CC[C@@H]5[C@@H]4CC[C@]4(C)C([C@H](C)CCC(=O)OCCOCCN=[N+]=[N-])CC[C@@H]54)C3)cc(=O)oc2c1 (stereo partly drawn) [Compound 12, (3S)-4-(((3R,5R,8R,9S,10S,13R,14S)-17-((R)-5-(2-(2-azidoethoxy)ethoxy)-5-oxopentan-2-yl)-10,13-dimethylhexadecahydro-1H-cyclopenta[a]phenanthren-3-yl)oxy)-3-(2-(7-methoxy-2-oxo-2H-chromen-4-yl)acetamido)-4-oxobutanoic acid] |  |  | >97 |  |  | 0 | 5.14 ± 0.11 µM | 142 to 143 |  | 
4 | C[C@H](CCC(=O)OCCN=[N+]=[N-])C1CC[C@H]2[C@@H]3CC[C@@H]4C[C@H](OC(=O)[C@H](CC(=O)O)Nc5ccc([N+](=O)[O-])c6nonc56)CC[C@]4(C)[C@H]3CC[C@]12C (stereo partly drawn) [Compound 1, (3S)-4-(((3R,5R,8R,9S,10S,13R,14S)-17-((R)-5-(2-azidoethoxy)-5-oxopentan-2-yl)-10,13-dimethylhexadecahydro-1H-cyclopenta[a]phenanthren-3-yl)oxy)-3-((7-nitrobenzo[c][1,2,5]oxadiazol-4-yl)amino)-4-oxobutanoic acid] |  |  |  |  |  | 0 | 4.2 µM and 4.33 µM | 78 to 79 | 74 | 0.8 µM and 0.77 µM
5 | C[C@H](CCC(=O)OCCOCCN=[N+]=[N-])C1CC[C@H]2[C@@H]3CC[C@@H]4C[C@H](OC(=O)[C@H](CC(=O)O)NC(=O)c5ccc([N+](=O)[O-])cc5)CC[C@]4(C)[C@H]3CC[C@]12C (stereo partly drawn) [Compound 7, (3S)-4-(((3R,5R,8R,9S,10S,13R,14S)-17-((R)-5-(2-(2-azidoethoxy)ethoxy)-5-oxopentan-2-yl)-10,13-dimethylhexadecahydro-1H-cyclopenta[a]phenanthren-3-yl)oxy)-3-(4-nitrobenzamido)-4-oxobutanoic acid] |  |  | >74 |  |  | 0 | 6.72 ± 0.3 µM | 57 to 58 |  | 
6 | COc1ccc2c(CC(=O)N[C@@H](CC(=O)O)C(=O)O[C@@H]3CC[C@@]4(C)[C@H](CC[C@@H]5[C@@H]4CC[C@]4(C)C([C@H](C)CCC(=O)OCCOCCOCCN=[N+]=[N-])CC[C@@H]54)C3)cc(=O)oc2c1 (stereo partly drawn) [Compound 13, (3S)-4-(((3R,5R,8R,9S,10S,10S,3R,14S)-17-((R)-5-(2-(2-(2-azidoethoxy)ethoxy)ethoxy)-5-oxopentan-2-yl)-10,13-dimethylhexadecahydro-1H-cyclopenta[a]phenanthren-3-yl)oxy)-3-(2-(7-methoxy-2-oxo-2H-chromen-4-yl)acetamido)-4-oxo butanoic acid] |  |  | >109 |  |  | 0 | 4.61 ± 0.35 µM | 134 to 135 |  | 
7 | COc1ccc2c(CC(=O)N[C@@H](CC(=O)O)C(=O)O[C@@H]3CC[C@@]4(C)[C@H](CC[C@@H]5[C@@H]4CC[C@]4(C)C([C@H](C)CCC(=O)OCCN=[N+]=[N-])CC[C@@H]54)C3)cc(=O)oc2c1 (stereo partly drawn) [Compound 11, (3S)-4-(((3R,5R,8R,9S,10 S,13R,14S)-17-((R)-5-(2-azidoethoxy)-5-oxopentan-2-yl)-10,13-dimethylhexadecahydro-1H-cyclopenta[a]phenanthren-3-yl)oxy)-3-(2-(7-methoxy-2-oxo-2H-chromen-4-yl)acetamido)-4-oxobutanoic acid] |  |  | >89 |  |  | 0 | 5.59 ± 0.24 µM | 151 to 152 |  | 
8 | COc1ccc2c(CC(=O)N[C@@H](CC(=O)O)C(=O)O[C@@H]3CC[C@@]4(C)[C@H](CC[C@@H]5[C@@H]4CC[C@]4(C)C([C@H](C)CCC(=O)OCCOCCOCCOCCOCCN=[N+]=[N-])CC[C@@H]54)C3)cc(=O)oc2c1 (stereo partly drawn) [Compound 15, (3S)-4-(((3R,5R,8R,9S,10S,13R,14S)-17-((R)-1-azido-16-oxo-3,6,9,12,15-pentaoxaicosan-19-yl)-10,13-dimethylhexadecahydro-1H-cyclopenta[a]phenanthren-3-yl)oxy)-3-(2-(7-methoxy-2-oxo-2H-chromen-4-yl)acetamido)-4-oxobutanoic acid] |  |  | >88 |  |  | 0 | 5.69 ± 0.4 µM | 113 to 114 |  | 
9 | C[C@H](CCC(=O)OCCN=[N+]=[N-])C1CC[C@H]2[C@@H]3CC[C@@H]4C[C@H](OC(=O)[C@H](CC(=O)O)NC(=O)c5ccc([N+](=O)[O-])cc5)CC[C@]4(C)[C@H]3CC[C@]12C (stereo partly drawn) [Compound 6, (3S)-4-(((3R,5R,8R,9S,10S,13R,14S)-17-((R)-5-(2-azidoethoxy)-5-oxopentan-2-yl)-10,13-dimethylhexadecahydro-1H-cyclopenta[a]phenanthren-3-yl)oxy)-3-(4-nitrobenzamido)-4-oxobutanoic acid] |  |  | >70 |  |  | 0 | 7.21 ± 0.1 µM | 61 to 62 |  | 
